Measured values from patent publication US10000765B2, “Gene encoding cytochrome P450, and use thereof” (NATIONAL INSTITUTE OF AGROBIOLOGICAL SCIENCES, priority 2011, dated 2018).

Legend:
[1] = test system: Wild-type rice (Nipponbare); assay: Drug sensitivity test on gellan gum medium, wild-type rice; assay type: in vivo, Oryza sativa; settings: plant height compared with drug-free medium
Method: Next, 1.6 g of Hoagland's mix (Sigma-Aldrich Corporation) and 3 g of Gelrite (Wako Pure Chemical Industries, Ltd.) were suspended in 1 L of distilled water. Then, the mixture was dissolved and heated in a microwave. After that, the mixture was cooled to 50 to 60 degree C., and BS was added at a final concentration of 1 μM. This mixture was dispensed into 30-mL tubular bottles at 15 mL to prepare a gellan gum medium. Next, CSSL rice paddies were soaked in 0.5% sodium hypochlorite for about 20 minutes, and were then washed well with water. These paddies were soaked in distilled water, and kept at 27 degree C. for 3 to 5 days for germination. Germinating seeds were softly planted in sprout-side up on the gellan gum medium. These samples, together with a beaker filled with distilled water, were placed in a transparent case, which was then covered with a clear-plastic wrap. These samples were grown at 27 degree C. under fluorescent light illumination (14 hours of a light period and 10 hours of a dark period) for 7 to 9 days.
According to the method of Example 1, a gellan gum medium containing a test drug at a concentration of 0.01, 0.1, 1, or 10 μM was prepared. Rice seeds were sterilized, germinated, seeded in the medium, and cultivated.

[2] = test system: Nipponbare and Kasalath calluses with CYP72A31 overexpression construct; assay: Callus growth test on BS-containing medium, Kasalath CYP72A31 overexpression construct; assay type: cell-based, Oryza sativa; settings: medium containing 0.25, 0.5, or 0.75 μM BS
From the text: (§1) According to Example 5, an HptII::35Spro::Kasalath CYP72A31::Tnos vector plasmid (pCAMBIA1390-KasCYP72A31, a kasCYP72A31 overexpression construct) or, as a control, an HptII::35Spro::sGFP::Tnos vector plasmid (pCAMBIA1390-sGFP, an sGFP overexpression construct) was introduced into a rice variety (cultivars: Nipponbare and Kasalath) by using an Agrobacterium method. Transformed calluses selected with 50 ppm hygromycin were isolated, and transplanted onto a bispyribac-sodium (BS)-containing medium to examine callus growth.

[3] = test system: Nipponbare and Kasalath calluses with GFP overexpression construct; assay: Callus growth test on BS-containing medium, GFP overexpression construct; assay type: cell-based, Oryza sativa; settings: medium containing 0.25, 0.5, or 0.75 μM BS
From the text: as §1

[4] = test system: non-transformed Arabidopsis thaliana (NT); assay: Drug sensitivity test on drug-containing MS medium, non-transformed Arabidopsis thaliana; assay type: in vivo
Method: A bag of mixed salts for Murashige-Skoog (MS) medium (manufactured by Wako Pure Chemical Industries, Ltd.) 20 g of sucrose, 3 mg of thiamin hydrochloride, 5 mg of nicotinic acid, and 0.5 mg of pyridoxine hydrochloride were dissolved in distilled water, and filled up to 1 L with distilled water. After pH adjustment to 5.8 to 6.3 with 1 M KOH, 3 g of Gelrite was added to the solution, and dissolved using a microwave. After that, the mixture was autoclaved to prepare a sterile MS medium. A test drug was added to this sterile MS medium so as to make a final concentration of 1.3, 4.1, 12, 37, 110, or 330 nM. Arabidopsis thaliana from a sterilized seed was seeded in the drug-containing MS medium, and cultivated at 22° C. for 12 to 14 days in a continuous light period.
Note that the drugs used in this Example were bispyribac-sodium, pyrithiobac-sodium, pyriminobac, bensulfuron-methyl, penoxsulam, pyrazosulfuron-ethyl, amidosulfuron, imazosulfuron, nicosulfuron, and propyrisulfuron.

[5] = test system: Rice (Nipponbare) calluses transformed with pCAMBIA1390-KasCYP72A31; assay: Selection of drug-resistant callus in N6D medium, pCAMBIA1390-KasCYP72A31; assay type: cell-based, Oryza sativa; settings: 4 weeks
Method: Rice transformed with pCAMBIA1390-KasCYP72A31 was used to examine whether a Kasalath-derived CYP72A31 gene was able to be used as a selection marker for transformation with BS as a selection reagent. According to Example 5, rice (Nipponbare) was transformed with pCAMBIA1390-KasCYP72A31 or pSTARA-sGFP by using an Agrobacterium method.
Rice (Nipponbare) calluses transformed with pCAMBIA1390-KasCYP72A31 were cultured for 4 weeks in an N6D medium containing 0.1 or 0.25 μM BS or an N6D medium containing 50 ppm hygromycin to select drug-resistant calluses. Also, rice calluses transformed with pSTARA-sGFP were selected in a similar manner in an N6D medium containing 0.25 μM BS.

Structure (SMILES): COc1cc(OC)nc(Oc2cccc(Oc3nc(OC)cc(OC)n3)c2C(=O)O)n1 [BS, bispyribac sodium]
- CK ratio (%) ([1]; drug 0.01 μM): 82%
- CK ratio (%) ([1]; drug 0.1 μM): 64%
- CK ratio (%) ([1]; drug 1 μM): 22%
- CK ratio (%) ([1]; drug 10 μM): 3%
- Callus growth [2]: demonstrated to grow
- Callus growth [3]: inhibited their growth
- Rate of emerging of true leaf (%) ([4]; drug 1.3 nM, day 12 after seeding): 44%
- Rate of emerging of true leaf (%) ([4]; drug 1.3 nM, day 14 after seeding): 100%
- Rate of emerging of true leaf (%) ([4]; drug 4.1 nM, day 12 after seeding): 67%
- Rate of emerging of true leaf (%) ([4]; drug 4.1 nM, day 14 after seeding): 100%
- Rate of emerging of true leaf (%) ([4]; drug 12 nM, day 12 after seeding): 56%
- Rate of emerging of true leaf (%) ([4]; drug 12 nM, day 14 after seeding): 50%
- Rate of emerging of true leaf (%) ([4]; drug 37 nM, day 12 after seeding): 0%
- Rate of emerging of true leaf (%) ([4]; drug 37 nM, day 14 after seeding): 0%
- Rate of emerging of true leaf (%) ([4]; drug 110 nM, day 12 after seeding): 0%
- Rate of emerging of true leaf (%) ([4]; drug 110 nM, day 14 after seeding): 0%
- Rate of emerging of true leaf (%) ([4]; drug 330 nM, day 12 after seeding): 0%
- Rate of emerging of true leaf (%) ([4]; drug 330 nM, day 14 after seeding): 0%
- Selection efficiency (ratio of the resulting transformed calluses/all calluses) ([5]; N6D medium containing 0.1 μM BS): 71%
- Selection efficiency (ratio of the resulting transformed calluses/all calluses) ([5]; N6D medium containing 0.25 μM BS): 61%
